Several values for one entry are separate records, joined by “and”; a condition that tells them apart may be missing. Identical values can stand only once.
Tested on: NCI-H196 complex spheroids with HUVEC/MSC, growth % T/C
Experiment: Anticancer human tumor NCI-H196 cell line growth inhibition [Asc];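 also: spheroids exposed to compound for 7 days before measurement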;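 as to viability, T/C: 100% = DMSO vehicle control wells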
Conditions: for viability, T/C: stronger effect = lower value; active = viability on the fitted dose curve at most 10% of control; inactive = the rest
Summary of the method: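 Complex spheroids combining tumor cells with HUVEC endothelial cells and human MSCs, at 37 degrees C, 5% CO2; agents tested alone or combined, half-log dilutions from at or near clinical Cmax, or 10 microM if Cmax unknown.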

[1] = curve of first compound, second compound 0.1 µM
[2] = curve of first compound, second compound 0.316 µM
[3] = curve of first compound, second compound 1 µM

NC(=O)C(=Cn1cnc(-c2cc(C(F)(F)F)cc(C(F)(F)F)c2)n1)c1cncnc1 + Cc1c(S(C)(=O)=O)c(-c2cc(F)cc(N3CCN(c4ccc(NS(=O)(=O)c5ccc(NC(CCN6CCC(C(=O)OCCCP(=O)(O)O)CC6)CSc6ccccc6)c(S(=O)(=O)C(F)(F)F)c5)cc4)CC3)c2)c(-c2ccc(Cl)cc2)n1C(C)C
23.3 nM: IC50 [2]
21.3 nM: IC50 [3]
19.3 nM: IC50 [1]
14.7 nM: IC50 (curve of first compound, second compound 10 µM)
inactive: viability, T/C (second compound 0.1 µM, first compound 0.000949 µM) 101% | viability, T/C (second compound 0.1 µM, first compound 0.003 µM) 89.2% | viability, T/C (second compound 0.1 µM, first compound 0.00949 µM) 72.1% | viability, T/C (second compound 0.1 µM, first compound 0.03 µM) 38.7% | viability, T/C (second compound 0.316 µM, first compound 0.000949 µM) 95.5% | viability, T/C (second compound 0.316 µM, first compound 0.003 µM) 89% | viability, T/C (second compound 0.316 µM, first compound 0.00949 µM) 78.9% | viability, T/C (second compound 0.316 µM, first compound 0.03 µM) 43.4% | viability, T/C (second compound 1 µM, first compound 0.000949 µM) 91.2% | viability, T/C (second compound 1 µM, first compound 0.003 µM) 83.5% | viability, T/C (second compound 1 µM, first compound 0.00949 µM) 72.3% | viability, T/C (second compound 1 µM, first compound 0.03 µM) 42.8% | viability, T/C (second compound 3.16 µM, first compound 0.000949 µM) 78% | viability, T/C (second compound 3.16 µM, first compound 0.003 µM) 78.5% | viability, T/C (second compound 3.16 µM, first compound 0.00949 µM) 64.1% | viability, T/C (second compound 3.16 µM, first compound 0.03 µM) 42.5% | viability, T/C (second compound 10 µM, first compound 0.000949 µM) 76.4% | viability, T/C (second compound 10 µM, first compound 0.003 µM) 74.3% | viability, T/C (second compound 10 µM, first compound 0.00949 µM) 59.6% | viability, T/C (second compound 10 µM, first compound 0.03 µM) 33.5%
19.8 nM: IC50 (curve of first compound, second compound 3.16 µM)
active: viability, T/C (second compound 0.1 µM, first compound 0.0949 µM) 4.69% | viability, T/C (second compound 0.1 µM, first compound 0.3 µM) 1.47% | viability, T/C (second compound 0.316 µM, first compound 0.0949 µM) 3.08% | viability, T/C (second compound 0.316 µM, first compound 0.3 µM) 1.16% | viability, T/C (second compound 1 µM, first compound 0.0949 µM) 2.35% | viability, T/C (second compound 1 µM, first compound 0.3 µM) 1.29% | viability, T/C (second compound 3.16 µM, first compound 0.0949 µM) 2.09% | viability, T/C (second compound 3.16 µM, first compound 0.3 µM) 1.75% | viability, T/C (second compound 10 µM, first compound 0.0949 µM) 2.89% | viability, T/C (second compound 10 µM, first compound 0.3 µM) 1.28%

Cn1ncnc1[C@H]1c2n[nH]c(=O)c3cc(F)cc(c23)N[C@@H]1c1ccc(F)cc1
> 100 nM: IC50 (curve of compound)
inactive: viability, T/C (compound 0.000316 µM) 97.9% and 107% and 106% | viability, T/C (compound 0.001 µM) 104% and 97.1% and 99.2% | viability, T/C (compound 0.00316 µM) 99.5% and 100% and 104% | viability, T/C (compound 0.01 µM) 104% and 102% and 98% | viability, T/C (compound 0.0316 µM) 100% (2×) and 96.9% | viability, T/C (compound 0.1 µM) 98.8% and 96% and 88.3%

COc1c(OCCCN2CCOCC2)ccc2c3n(c(=NC(=O)c4cnc(N)nc4)nc12)CCN3 + CCN1C(C(=O)NC23CCC(C(=O)O)(CC2)CC3)C(c2cccc(Cl)c2F)C2(C(=O)Nc3cc(Cl)ccc32)C12CCCCC2
inactive: viability, T/C (second compound 0.03 µM, first compound 0.00316 µM) 101% | viability, T/C (second compound 0.03 µM, first compound 0.01 µM) 106% | viability, T/C (second compound 0.03 µM, first compound 0.0316 µM) 91% | viability, T/C (second compound 0.03 µM, first compound 0.1 µM) 77.1% | viability, T/C (second compound 0.03 µM, first compound 0.316 µM) 68.8% | viability, T/C (second compound 0.03 µM, first compound 1 µM) 52.1% | viability, T/C (second compound 0.0949 µM, first compound 0.00316 µM) 117% | viability, T/C (second compound 0.0949 µM, first compound 0.01 µM) 99.6% | viability, T/C (second compound 0.0949 µM, first compound 0.0316 µM) 98.5% | viability, T/C (second compound 0.0949 µM, first compound 0.1 µM) 82.8% | viability, T/C (second compound 0.0949 µM, first compound 0.316 µM) 72.7% | viability, T/C (second compound 0.0949 µM, first compound 1 µM) 52.2% | viability, T/C (second compound 0.3 µM, first compound 0.00316 µM) 110% | viability, T/C (second compound 0.3 µM, first compound 0.01 µM) 102% | viability, T/C (second compound 0.3 µM, first compound 0.0316 µM) 106% | viability, T/C (second compound 0.3 µM, first compound 0.1 µM) 83.1% | viability, T/C (second compound 0.3 µM, first compound 0.316 µM) 73.3% | viability, T/C (second compound 0.3 µM, first compound 1 µM) 59.7% | viability, T/C (second compound 0.949 µM, first compound 0.00316 µM) 103% | viability, T/C (second compound 0.949 µM, first compound 0.01 µM) 109% | viability, T/C (second compound 0.949 µM, first compound 0.0316 µM) 94.9% | viability, T/C (second compound 0.949 µM, first compound 0.1 µM) 85.7% | viability, T/C (second compound 0.949 µM, first compound 0.316 µM) 66.9% | viability, T/C (second compound 0.949 µM, first compound 1 µM) 57.3% | viability, T/C (second compound 3 µM, first compound 0.00316 µM) 113% | viability, T/C (second compound 3 µM, first compound 0.01 µM) 106% | viability, T/C (second compound 3 µM, first compound 0.0316 µM) 105% | viability, T/C (second compound 3 µM, first compound 0.1 µM) 81.2% | viability, T/C (second compound 3 µM, first compound 0.316 µM) 73.1% | viability, T/C (second compound 3 µM, first compound 1 µM) 54.2%
> 1000 nM: IC50 (curve of first compound, second compound 0.03 µM) | IC50 (curve of first compound, second compound 0.0949 µM) | IC50 (curve of first compound, second compound 0.3 µM) | IC50 (curve of first compound, second compound 0.949 µM) | IC50 (curve of first compound, second compound 3 µM)

C#Cc1c(F)ccc2cc(O)cc(-c3ncc4c(N5CC6CCC(C5)N6)nc(OCC56CCCN5CC(F)C6)nc4c3F)c12 (configuration not stated) + CNC(C)C(=O)NC1CN(S(=O)(=O)c2cccc(S(=O)(=O)N3CCC4CCC(C(=O)NC(c5ccccc5)c5ccccc5)N4C(=O)C(NC(=O)C(C)NC)C3)c2)CCC2CCC(C(=O)NC(c3ccccc3)c3ccccc3)N2C1=O
< 31.6 nM: IC50 (curve of first compound, second compound 0.01 µM) | IC50 (curve of first compound, second compound 0.0316 µM) | IC50 [1] | IC50 [2] | IC50 [3]
active: viability, T/C (second compound 0.01 µM, first compound 0.0316 µM) 8.46% | viability, T/C (second compound 0.01 µM, first compound 0.1 µM) 8.46% | viability, T/C (second compound 0.01 µM, first compound 0.316 µM) 4.34% | viability, T/C (second compound 0.01 µM, first compound 1 µM) 5.01% | viability, T/C (second compound 0.01 µM, first compound 3.16 µM) 4.3% | viability, T/C (second compound 0.01 µM, first compound 10 µM) 1.48% | viability, T/C (second compound 0.0316 µM, first compound 0.0316 µM) 5.72% | viability, T/C (second compound 0.0316 µM, first compound 0.1 µM) 5.7% | viability, T/C (second compound 0.0316 µM, first compound 0.316 µM) 4.82% | viability, T/C (second compound 0.0316 µM, first compound 1 µM) 3.76% | viability, T/C (second compound 0.0316 µM, first compound 3.16 µM) 4.16% | viability, T/C (second compound 0.0316 µM, first compound 10 µM) 0.96% | viability, T/C (second compound 0.1 µM, first compound 0.0316 µM) 4.46% | viability, T/C (second compound 0.1 µM, first compound 0.1 µM) 3.83% | viability, T/C (second compound 0.1 µM, first compound 0.316 µM) 4.97% | viability, T/C (second compound 0.1 µM, first compound 1 µM) 3.85% | viability, T/C (second compound 0.1 µM, first compound 3.16 µM) 3.73% | viability, T/C (second compound 0.1 µM, first compound 10 µM) 0.77% | viability, T/C (second compound 0.316 µM, first compound 0.0316 µM) 2.58% | viability, T/C (second compound 0.316 µM, first compound 0.1 µM) 2.92% | viability, T/C (second compound 0.316 µM, first compound 0.316 µM) 3.31% | viability, T/C (second compound 0.316 µM, first compound 1 µM) 3.63% | viability, T/C (second compound 0.316 µM, first compound 3.16 µM) 2.24% | viability, T/C (second compound 0.316 µM, first compound 10 µM) 1.04% | viability, T/C (second compound 1 µM, first compound 0.0316 µM) 3.75% | viability, T/C (second compound 1 µM, first compound 0.1 µM) 2.83% | viability, T/C (second compound 1 µM, first compound 0.316 µM) 3.86% | viability, T/C (second compound 1 µM, first compound 1 µM) 2.71% | viability, T/C (second compound 1 µM, first compound 3.16 µM) 2.69% | viability, T/C (second compound 1 µM, first compound 10 µM) 1.34%

Reference: PubChem BioAssay AID1963439 (Molecular Pharmacology Branch, DTP, NCI, 2024)
